Assay results published in patent US9969742B2, “Imidazotriazinone compounds” (Ironwood Pharmaceuticals, Inc., priority 2012, dated 2018).

biological target: T1, PDE9A2 (Homo sapiens, UniProt O76083); test: Phosphodiesterase enzyme screening assay, PDE9A2; type: biochemical; conditions: Table 1; 10 concentrations; 4.0 μM cGMP substrate; 1 hour at R.T.; read-out: Band (PDE9A2 IC50)
T1 construct: purchased Reaction Biology Corporation, Malvern, Pa
From the text: Compounds of the invention were screened against PDE1A, PDE1B, PDE2A, PDE3A, PDE3B, PDE4A1A, PDE4B1, PDE4D3, PDE5A1, PDE6C, PDE7A, PDE8A1, PDE9A2, PDE10A2 AND PDE11A isoforms of the phosphodiesterase enzyme to determine activity and overall selectivity through comparative analysis. […] Where 8-methoxy-IBMX and Zaprinast were used as reference inhibitors.
The phosphodiesterase enzyme isoforms were obtained from a commercial retailer (Reaction Biology Corporation, Malvern, Pa.) for use in the instant screening assay.
The analysis was completed using the Caliper LabChip 3000 and a 12-sipper LabChip. LabChip assays are separations-based, meaning that the product and substrate are electrophoretically separated, thereby minimizing interferences and yielding the highest data quality available on any screening platform. […] High Z′ values, few false positives, few false negatives and analytical quality reproducibility are the reasons cited for the increasing reliance on the LabChip assays.
The off-chip incubation mobility-shift phosphodiesterase assay uses a microfluidic chip to measure the conversion of a fluorescent cyclic AMP substrate to a 5′-AMP product, or a cyclic GMP substrate to a 5′-GMP product. The reaction mixture, from a microtiter plate well, is introduced through a capillary sipper onto the chip, where the fluorescent substrate and product are separated by electrophoresis and detected via laser-induced fluorescence. […] The precision of microfluidics allows researchers to detect subtle interactions between drug candidates and therapeutic targets.
Reactions were carried out in 100 mM HEPES (pH 7.5), 5 mM MgCl2, 1 mM DTT, 0.003% Brij, 4.0 μM cGMP substrate. The reaction was started by addition of cGMP or cAMP and incubated for 1 hour at R.T. The reaction was terminated by the addition of stop buffer containing 100 mM HEPES (pH 7.5), 15 mM EDTA, 0.015% Brij-35, 5% DMSO. Cyclic AMP/GMP substrate and 5′-AMP/5′-GMP product were separated by charge using electrophoretic mobility shift. Product formed was compared to control wells to determine inhibition or enhancement of enzyme activity.
Data points were averages of quadruplicate wells and error bars represented the SEM for each point.

T1 sequence (O76083 1-533 isoform O76083-2): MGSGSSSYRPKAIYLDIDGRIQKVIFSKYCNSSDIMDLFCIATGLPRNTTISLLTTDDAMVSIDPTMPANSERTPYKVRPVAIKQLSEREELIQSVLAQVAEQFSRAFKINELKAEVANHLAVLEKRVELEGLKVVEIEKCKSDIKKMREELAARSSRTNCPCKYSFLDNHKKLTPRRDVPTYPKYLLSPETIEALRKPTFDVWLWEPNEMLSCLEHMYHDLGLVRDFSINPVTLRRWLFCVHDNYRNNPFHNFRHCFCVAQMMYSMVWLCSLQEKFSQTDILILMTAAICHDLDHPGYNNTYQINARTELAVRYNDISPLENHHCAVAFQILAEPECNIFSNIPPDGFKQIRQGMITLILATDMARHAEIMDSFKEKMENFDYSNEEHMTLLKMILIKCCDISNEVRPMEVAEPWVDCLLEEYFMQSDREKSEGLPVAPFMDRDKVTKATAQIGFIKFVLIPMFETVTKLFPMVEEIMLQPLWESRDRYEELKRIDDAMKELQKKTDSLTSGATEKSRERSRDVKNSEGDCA

Row | IC50 | Compound
1 | < 1000 nM | Cc1ccc(F)cc1-c1ncc2c(=O)[nH]c(C3CN(Cc4ncccn4)CC3C)nn12 (single isomer, unassigned; (+)) [(+)-7-(5-fluoro-2-methylphenyl)-2-((3,4-trans)-4-methyl-1-(pyrimidin-2-ylmethyl)pyrrolidin-3-yl)imidazo[1,5-f][1,2,4]triazin-4(3H)-one]
2 | 1000 to 10000 nM | CC1CN(Cc2ccccc2)CC1c1nn2c(C3CCN(C(=O)OC(C)(C)C)CC3)ncc2c(=O)[nH]1 (single isomer, unassigned; (+)) [(+)-tert-butyl 4-(2-((3,4-trans)-1-benzyl-4-methylpyrrolidin-3-yl)-4-oxo-3,4-dihydroimidazo[1,5-f][1,2,4]triazin-7-yl)piperidine-1-carboxylate]
3 | < 1000 nM | CC1CN(C(C)c2ccccc2)CC1c1nn2c(C3CCOCC3)ncc2c(=O)[nH]1 (single isomer, unassigned; (-)) [listing 1 of 2 here]
4 | < 1000 nM | CC1CN(C(C)c2ccccc2)CC1c1nn2c(C3CCOCC3)ncc2c(=O)[nH]1 (single isomer, unassigned; (-)) [listing 2 of 2 here]
5 | < 1000 nM | CC1CN(Cc2ccccc2F)CC1c1nn2c(C3CCOCC3)ncc2c(=O)[nH]1 (single isomer, unassigned; (-)) [(−)-2-((3,4-trans)-1-(2-fluorobenzyl)-4-methylpyrrolidin-3-yl)-7-(tetrahydro-2H-pyran-4-yl)imidazo[5,1-f][1,2,4]triazin-4(3H)-one]
6 | < 1000 nM | CC1CN(C(=O)c2ccc(F)cc2)CC1c1nn2c(C3CCOCC3)ncc2c(=O)[nH]1 (single isomer, unassigned; (-)) [(−)-2-((3,4-trans)-1-(4-fluorobenzoyl)-4-methylpyrrolidin-3-yl)-7-(tetrahydro-2H-pyran-4-yl)imidazo[5,1-f][1,2,4]triazin-4(3H)-one]
7 | < 1000 nM | CC1CN(Cc2ccc(F)cc2)CC1c1nn2c(C3CCOCC3)ncc2c(=O)[nH]1 (single isomer, unassigned; (-)) [(−)-2-((3,4-trans)-1-(4-fluorobenzyl)-4-methylpyrrolidin-3-yl)-7-(tetrahydro-2H-pyran-4-yl)imidazo[5,1-f][1,2,4]triazin-4(3H)-one]
8 | 1000 to 10000 nM | CC1CN(S(=O)(=O)c2ccc(F)cc2)CC1c1nn2c(C3CCOCC3)ncc2c(=O)[nH]1 (single isomer, unassigned; (-)) [(−)-2-((3,4-trans)-1-((4-fluorophenyl)sulfonyl)-4-methylpyrrolidin-3-yl)-7-(tetrahydro-2H-pyran-4-yl)imidazo[5,1-f][1,2,4]triazin-4(3H)-one]
9 | < 1000 nM | COc1cccc(CN2CC(C)C(c3nn4c(C5CCOCC5)ncc4c(=O)[nH]3)C2)n1 (single isomer, unassigned; (-)) [(−)-2-((3,4-trans)-1-((6-methoxypyridin-2-yl)methyl)-4-methylpyrrolidin-3-yl)-7-(tetrahydro-2H-pyran-4-yl)imidazo[5,1-f][1,2,4]triazin-4(3H)-one]
10 | < 1000 nM | CCS(=O)(=O)N1CC(C)C(c2nn3c(C4CCOCC4)ncc3c(=O)[nH]2)C1 (single isomer, unassigned; (-)) [(−)-2-((3,4-trans)-1-(ethylsulfonyl)-4-methylpyrrolidin-3-yl)-7-(tetrahydro-2H-pyran-4-yl)imidazo[5,1-f][1,2,4]triazin-4(3H)-one]
11 | < 1000 nM | CC1CN(Cc2ccc3nccn3n2)CC1c1nn2c(C3CCOCC3)ncc2c(=O)[nH]1 (single isomer, unassigned; (-)) [(−)-2-((3,4-trans)-1-(imidazo[1,2-b]pyridazin-6-ylmethyl)-4-methylpyrrolidin-3-yl)-7-(tetrahydro-2H-pyran-4-yl)imidazo[5,1-f][1,2,4]triazin-4(3H)-one]
12 | < 1000 nM | CC1CN(C(=O)c2ccccc2)CC1c1nn2c(C3CCOCC3)ncc2c(=O)[nH]1 (single isomer, unassigned; (-)) [(−)-2-((3,4-trans)-1-benzoyl-4-methylpyrrolidin-3-yl)-7-(tetrahydro-2H-pyran-4-yl)imidazo[5,1-f][1,2,4]triazin-4(3H)-one]
13 | < 1000 nM | CC1CN(Cc2ccccc2)CC1c1nn2c(C3CCC(F)(F)CC3)ncc2c(=O)[nH]1 (single isomer, unassigned; (-)) [(−)-2-((3,4-trans)-1-benzyl-4-methylpyrrolidin-3-yl)-7-(4,4-difluorocyclohexyl)imidazo[5,1-f][1,2,4]triazin-4(3H)-one]
14 | 1000 to 10000 nM | Cc1ccc(F)cc1-c1ncc2c(=O)[nH]c(C3CN(Cc4ccccc4)CC3C)nn12 (single isomer, unassigned; (-)) [(−)-2-((3,4-trans)-1-benzyl-4-methylpyrrolidin-3-yl)-7-(5-fluoro-2-methylphenyl)imidazo[1,5-f][1,2,4]triazin-4(3H)-one]
15 | < 1000 nM | CC1CN(C(=O)c2ccncc2)CC1c1nn2c(C3CCOCC3)ncc2c(=O)[nH]1 (single isomer, unassigned; (-)) [(−)-2-((3,4-trans)-1-isonicotinoyl-4-methylpyrrolidin-3-yl)-7-(tetrahydro-2H-pyran-4-yl)imidazo[5,1-f][1,2,4]triazin-4(3H)-one]
16 | < 1000 nM | CC1CN(C(=O)c2ccccc2C#N)CC1c1nn2c(C3CCOCC3)ncc2c(=O)[nH]1 (single isomer, unassigned; (-)) [(−)-2-((3,4-trans)-3-methyl-4-(4-oxo-7-(tetrahydro-2H-pyran-4-yl)-3,4-dihydroimidazo[5,1-f][1,2,4]triazin-2-yl)pyrrolidine-1-carbonyl)benzonitrile]
17 | 1000 to 10000 nM | CC1CN(S(=O)(=O)c2ccccc2)CC1c1nn2c(C3CCOCC3)ncc2c(=O)[nH]1 (single isomer, unassigned; (-)) [(−)-2-((3,4-trans)-4-methyl-1-(phenylsulfonyl)pyrrolidin-3-yl)-7-(tetrahydro-2H-pyran-4-yl)imidazo[5,1-f][1,2,4]triazin-4(3H)-one]
18 | < 1000 nM | CC1CN(C(=O)c2cnccn2)CC1c1nn2c(C3CCOCC3)ncc2c(=O)[nH]1 (single isomer, unassigned; (-)) [(−)-2-((3,4-trans)-4-methyl-1-(pyrazine-2-carbonyl)pyrrolidin-3-yl)-7-(tetrahydro-2H-pyran-4-yl)imidazo[5,1-f][1,2,4]triazin-4(3H)-one]
19 | < 1000 nM | CC1CN(Cc2ccccn2)CC1c1nn2c(C3CCOCC3)ncc2c(=O)[nH]1 (single isomer, unassigned; (-)) [(−)-2-((3,4-trans)-4-methyl-1-(pyridin-2-ylmethyl)pyrrolidin-3-yl)-7-(tetrahydro-2H-pyran-4-yl)imidazo[5,1-f][1,2,4]triazin-4(3H)-one]
20 | < 1000 nM | CC1CN(C(=O)c2ncccn2)CC1c1nn2c(C3CCOCC3)ncc2c(=O)[nH]1 (single isomer, unassigned; (-)) [(−)-2-((3,4-trans)-4-methyl-1-(pyrimidine-2-carbonyl)pyrrolidin-3-yl)-7-(tetrahydro-2H-pyran-4-yl)imidazo[5,1-f][1,2,4]triazin-4(3H)-one]

Row | Compound | IC50
21 | CC1CN(Cc2ccccc2)CC1c1nn2c(C3CCOC3)ncc2c(=O)[nH]1 (single isomer, unassigned; (-)) [(−)-2-(1-(3,4-trans)-benzyl-4-methylpyrrolidin-3-yl)-7-(tetrahydrofuran-3-yl)imidazo[5,1-f][1,2,4]triazin-4(3H)-one] | 1000 to 10000 nM

same assay, conditions: read-out: Band (PDE9A2 IC50)

Row | IC50 | Compound
22 | < 1000 nM | CC1CN(Cc2cn3ccccc3n2)CC1c1nn2c(-c3cccc(F)c3)ncc2c(=O)[nH]1 (single isomer, unassigned; (+)) [(+)-7-(3-fluorophenyl)-2-((3,4-trans)-1-(imidazo[1,2-a]pyridin-2-ylmethyl)-4-methylpyrrolidin-3-yl)imidazo[5,1-f][1,2,4]triazin-4(3H)-one]
23 | < 1000 nM | CC1CN(Cc2ncccn2)CC1c1nn2c(-c3cccc(F)c3)ncc2c(=O)[nH]1 (single isomer, unassigned; (+)) [(+)-7-(3-fluorophenyl)-2-((3,4-trans)-4-methyl-1-(pyrimidin-2-ylmethyl)pyrrolidin-3-yl)imidazo[5,1-f][1,2,4]triazin-4(3H)-one]
24 | 1000 to 10000 nM | CC1CN(Cc2ccccn2)CC1c1nn2c(-c3ccc(F)cc3)ncc2c(=O)[nH]1 (single isomer, unassigned; (+)) [(+)-7-(4-fluorophenyl)-2-((3,4-trans)-4-methyl-1-(pyridin-2-ylmethyl)pyrrolidin-3-yl)imidazo[5,1-f][1,2,4]triazin-4(3H)-one]
25 | < 1000 nM | CC1CN(Cc2cccnc2)CC1c1nn2c(-c3ccc(F)cc3)ncc2c(=O)[nH]1 (single isomer, unassigned; (+)) [(+)-7-(4-fluorophenyl)-2-((3,4-trans)-4-methyl-1-(pyridin-3-ylmethyl)pyrrolidin-3-yl)imidazo[5,1-f][1,2,4]triazin-4(3H)-one]
